Laboratory results from ChEMBL document CHEMBL1201862, “PubChem BioAssay data set” (2004).
Activity calls are given as the source filed them.

Columns and labels:
Aminopeptidase N = target: T1, Aminopeptidase N (Plasmodium falciparum FcB1/Columbia, UniProt O96935); assay: P. falciparum M1AAP inhibitors, biochemical, fluorogenic H-Leu-NHMec substrate, 1536-well (AID 1445); design: species or system Plasmodium falciparum 3D7, 3D7
T1 sequence (O96935 whole entry): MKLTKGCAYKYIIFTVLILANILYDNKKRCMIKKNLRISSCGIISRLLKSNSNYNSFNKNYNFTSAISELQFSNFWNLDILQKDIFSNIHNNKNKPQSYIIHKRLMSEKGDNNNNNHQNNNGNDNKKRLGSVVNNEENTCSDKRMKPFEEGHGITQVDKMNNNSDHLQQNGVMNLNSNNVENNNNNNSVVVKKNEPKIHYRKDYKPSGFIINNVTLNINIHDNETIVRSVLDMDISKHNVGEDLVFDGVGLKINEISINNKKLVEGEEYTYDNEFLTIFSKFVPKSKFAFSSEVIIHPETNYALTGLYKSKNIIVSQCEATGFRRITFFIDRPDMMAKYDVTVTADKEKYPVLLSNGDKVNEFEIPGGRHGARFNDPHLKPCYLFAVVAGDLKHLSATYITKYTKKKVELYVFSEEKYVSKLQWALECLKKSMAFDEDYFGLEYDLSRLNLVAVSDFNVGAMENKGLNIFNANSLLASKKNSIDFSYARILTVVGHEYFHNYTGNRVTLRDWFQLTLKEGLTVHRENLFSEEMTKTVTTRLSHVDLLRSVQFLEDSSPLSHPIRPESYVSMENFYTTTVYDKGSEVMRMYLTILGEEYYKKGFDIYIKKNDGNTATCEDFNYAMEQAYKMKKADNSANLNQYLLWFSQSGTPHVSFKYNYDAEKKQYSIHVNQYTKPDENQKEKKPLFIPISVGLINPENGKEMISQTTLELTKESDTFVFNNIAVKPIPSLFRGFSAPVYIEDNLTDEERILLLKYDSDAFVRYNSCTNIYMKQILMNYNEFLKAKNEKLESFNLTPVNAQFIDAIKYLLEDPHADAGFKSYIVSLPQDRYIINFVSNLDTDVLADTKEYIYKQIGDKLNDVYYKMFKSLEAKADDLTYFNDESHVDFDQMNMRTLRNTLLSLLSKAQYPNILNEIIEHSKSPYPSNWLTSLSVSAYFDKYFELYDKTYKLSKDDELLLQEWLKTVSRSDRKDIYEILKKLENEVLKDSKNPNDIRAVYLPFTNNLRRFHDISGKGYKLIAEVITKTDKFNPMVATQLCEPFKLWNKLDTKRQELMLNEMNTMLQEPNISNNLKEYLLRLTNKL

[1] = target: Eukaryotic translation initiation factor 4H (Homo sapiens, UniProt Q15056); assay: human eIF4H binding inhibitors, primary screen, translation initiation inhibitor project, biochemical, uHTS, fluorescence polarization (AID 2012)
[2] = target: Polyadenylate-binding protein 1 (Homo sapiens, UniProt P11940); assay: PABP poly(A) RNA binding inhibitors, primary screen, biochemical, fluorescence polarization, uHTS (AID 2014)
Polyadenylate-binding protein 1, sequence (P11940 whole entry): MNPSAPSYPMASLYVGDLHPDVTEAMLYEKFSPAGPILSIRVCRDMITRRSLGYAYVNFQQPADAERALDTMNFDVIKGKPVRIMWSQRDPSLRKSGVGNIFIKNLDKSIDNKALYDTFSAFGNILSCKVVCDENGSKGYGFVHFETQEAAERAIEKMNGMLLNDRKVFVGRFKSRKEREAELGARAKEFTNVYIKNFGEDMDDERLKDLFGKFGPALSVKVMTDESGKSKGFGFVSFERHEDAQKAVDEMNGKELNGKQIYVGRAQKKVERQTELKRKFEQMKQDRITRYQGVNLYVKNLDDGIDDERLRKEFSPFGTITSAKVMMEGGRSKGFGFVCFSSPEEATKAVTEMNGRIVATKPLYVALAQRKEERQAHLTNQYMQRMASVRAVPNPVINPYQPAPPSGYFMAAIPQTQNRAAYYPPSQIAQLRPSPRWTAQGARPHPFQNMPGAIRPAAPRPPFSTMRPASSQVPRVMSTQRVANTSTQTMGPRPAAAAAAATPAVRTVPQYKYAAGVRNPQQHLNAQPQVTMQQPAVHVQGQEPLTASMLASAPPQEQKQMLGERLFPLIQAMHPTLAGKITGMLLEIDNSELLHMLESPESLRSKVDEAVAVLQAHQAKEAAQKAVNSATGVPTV

[3] = target: Glyceraldehyde-3-phosphate dehydrogenase (Homo sapiens, UniProt P04406)
Glyceraldehyde-3-phosphate dehydrogenase, sequence (P04406 whole entry): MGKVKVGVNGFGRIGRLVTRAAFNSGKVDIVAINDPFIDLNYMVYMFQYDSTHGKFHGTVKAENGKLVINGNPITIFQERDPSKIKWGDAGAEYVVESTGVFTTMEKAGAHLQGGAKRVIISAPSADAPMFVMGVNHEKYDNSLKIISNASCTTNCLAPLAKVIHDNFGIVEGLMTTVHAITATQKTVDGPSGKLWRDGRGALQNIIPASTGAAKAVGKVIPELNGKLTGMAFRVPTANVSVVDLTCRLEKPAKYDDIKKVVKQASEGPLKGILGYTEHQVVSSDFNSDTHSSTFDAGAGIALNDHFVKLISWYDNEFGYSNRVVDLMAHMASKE

[4] = target: Alkaline phosphatase, placental type (Homo sapiens, UniProt P05187); assay: PLAP enzyme inhibitors, confirmation, biochemical, luminescence (AID 1512); assay type: functional
Alkaline phosphatase, placental type, sequence (P05187 whole entry): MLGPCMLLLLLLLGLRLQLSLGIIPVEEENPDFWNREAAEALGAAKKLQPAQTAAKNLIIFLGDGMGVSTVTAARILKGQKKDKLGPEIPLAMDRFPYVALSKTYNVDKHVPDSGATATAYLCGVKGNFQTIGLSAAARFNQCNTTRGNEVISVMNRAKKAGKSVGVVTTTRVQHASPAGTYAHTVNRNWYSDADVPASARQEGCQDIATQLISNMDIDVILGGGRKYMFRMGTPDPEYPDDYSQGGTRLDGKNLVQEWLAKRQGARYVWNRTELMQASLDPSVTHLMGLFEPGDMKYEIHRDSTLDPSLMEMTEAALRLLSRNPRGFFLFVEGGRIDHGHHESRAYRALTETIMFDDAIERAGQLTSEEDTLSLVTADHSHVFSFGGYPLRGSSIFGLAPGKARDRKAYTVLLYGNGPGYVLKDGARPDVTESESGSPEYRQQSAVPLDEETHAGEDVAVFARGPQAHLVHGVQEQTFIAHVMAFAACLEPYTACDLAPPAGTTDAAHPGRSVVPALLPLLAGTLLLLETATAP

[5] = target: T2, Alkaline phosphatase, tissue-nonspecific isozyme (Homo sapiens, UniProt P05186); assay: human TNAP enzyme inhibitors, SAR follow-up, biochemical, luminescent, dose response (AID 1056)
T2 sequence (P05186 whole entry): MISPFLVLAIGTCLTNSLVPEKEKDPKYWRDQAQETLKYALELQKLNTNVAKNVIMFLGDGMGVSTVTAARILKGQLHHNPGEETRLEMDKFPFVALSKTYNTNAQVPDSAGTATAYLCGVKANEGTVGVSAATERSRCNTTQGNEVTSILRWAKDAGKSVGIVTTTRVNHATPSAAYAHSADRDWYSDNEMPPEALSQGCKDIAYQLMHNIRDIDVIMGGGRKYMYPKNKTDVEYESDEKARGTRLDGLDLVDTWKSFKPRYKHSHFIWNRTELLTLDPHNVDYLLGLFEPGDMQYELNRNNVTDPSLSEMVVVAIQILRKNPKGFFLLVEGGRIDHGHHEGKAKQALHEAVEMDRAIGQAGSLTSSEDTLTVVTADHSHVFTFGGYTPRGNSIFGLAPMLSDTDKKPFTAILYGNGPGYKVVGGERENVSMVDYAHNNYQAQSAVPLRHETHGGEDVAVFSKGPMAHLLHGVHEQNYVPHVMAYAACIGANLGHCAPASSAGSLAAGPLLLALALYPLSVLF

[6] = HEp-2 cell cytotoxicity, dose response, cytotoxicity control for RSV inhibitor project, HTS (AID 2410); assay type: functional; details: human respiratory syncytial virus
[7] = Luminescence Cell-Based Dose Confirmation HTS to Identify Activators of 5'UTR Stem-Loop Driven Alpha-Synuclein mRNA Translation in H4 Neuroglioblastoma Cells. [Related pubchem assays: 1829 (Project Summary), 1814 (Primary HTS)]; assay type: functional
[8] = Luminescence Cell-Based Dose Response HTS to Identify Activators of Luciferase Translation or Activity in H4 […] Cells. [Related pubchem assays: 1829 (Project Summary), 1814 (Primary HTS)]; assay type: functional
H4 = assay: Luminescence Cell-Based Dose Response HTS to Identify Activators of 5'UTR Stem-Loop Driven Prion Protein mRNA Translation in H4 Neuroglioblastoma Cells. [Related pubchem assays: 1829 (Project Summary), 1814 (Primary HTS)]; assay type: functional; details: Homo sapiens
[9] = inhibitors of intracellular T. cruzi replication, confirmation, NIH3T3 host cells, beta-gal luminescence (AID 2044); assay type: functional, cell-based;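 also: intracellular parasites grown in NIH/3T3 mouse fibroblasts as host cells; luminescent beta-galactosidase reporter signal from transgenic T. cruzi replicating inside host cells; inhibitors lower the luminescence signal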
[10] = cytotoxicity toward NIH3T3 fibroblasts, dose response, counter-screen, cell-based, ATP luminescence, mouse fibroblasts (AID 2010); assay type: functional;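 also: cells exposed to compound for about 90 hours before reading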
Genome polyprotein = Genome polyprotein (dengue virus type 2, UniProt P29990); assay: Dengue-2 NS5 methyltransferase inhibitors, primary screen, biochemical, confirmation dose response (AID 588689); assay type: functional
Genome polyprotein, sequence (P29990 2492-3391 limits assumed): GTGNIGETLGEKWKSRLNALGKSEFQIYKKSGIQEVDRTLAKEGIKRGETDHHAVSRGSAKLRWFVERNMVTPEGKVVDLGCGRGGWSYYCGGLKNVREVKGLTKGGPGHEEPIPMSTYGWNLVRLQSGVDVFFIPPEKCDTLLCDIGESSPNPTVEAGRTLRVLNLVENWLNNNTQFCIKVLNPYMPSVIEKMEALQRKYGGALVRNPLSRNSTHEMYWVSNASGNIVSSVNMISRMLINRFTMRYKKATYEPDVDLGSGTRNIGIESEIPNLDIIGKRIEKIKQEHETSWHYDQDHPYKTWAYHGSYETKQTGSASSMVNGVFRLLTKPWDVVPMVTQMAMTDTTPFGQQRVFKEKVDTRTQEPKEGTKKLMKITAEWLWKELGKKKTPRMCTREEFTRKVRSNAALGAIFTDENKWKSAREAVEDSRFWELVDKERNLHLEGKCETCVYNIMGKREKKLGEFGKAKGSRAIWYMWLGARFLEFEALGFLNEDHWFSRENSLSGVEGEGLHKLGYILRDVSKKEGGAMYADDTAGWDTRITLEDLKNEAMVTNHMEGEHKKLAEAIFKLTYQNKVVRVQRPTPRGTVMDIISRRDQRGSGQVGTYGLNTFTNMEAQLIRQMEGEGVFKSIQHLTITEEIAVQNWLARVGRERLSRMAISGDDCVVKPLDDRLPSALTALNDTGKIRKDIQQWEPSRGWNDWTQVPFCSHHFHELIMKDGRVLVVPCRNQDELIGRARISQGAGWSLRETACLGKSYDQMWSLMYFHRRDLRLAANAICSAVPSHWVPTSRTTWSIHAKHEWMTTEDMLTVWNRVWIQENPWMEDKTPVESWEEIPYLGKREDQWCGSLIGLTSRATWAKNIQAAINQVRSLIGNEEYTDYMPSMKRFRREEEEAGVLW

[11] = target: DNA dC->dU-editing enzyme APOBEC-3A (Homo sapiens, UniProt P31941); assay: Dose Response confirmation of small molecule APOBEC3A DNA Deaminase Inhibitors via a fluorescence-based single-stranded DNA deaminase assay. [Related pubchem assays (depositor defined):AID493011, AID493024]; assay type: functional
DNA dC->dU-editing enzyme APOBEC-3A, sequence (P31941 whole entry): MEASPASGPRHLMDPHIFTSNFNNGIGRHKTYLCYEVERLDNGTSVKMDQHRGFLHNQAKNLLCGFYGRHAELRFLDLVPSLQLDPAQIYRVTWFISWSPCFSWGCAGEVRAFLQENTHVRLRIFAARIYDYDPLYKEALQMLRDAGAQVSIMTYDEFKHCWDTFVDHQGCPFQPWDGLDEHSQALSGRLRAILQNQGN

[12] = target: DNA dC->dU-editing enzyme APOBEC-3G (Homo sapiens, UniProt Q9HC16); assay type: functional;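 also: Dose-response counterscreen measuring inhibition of APOBEC3G DNA deaminase activity, run while confirming APOBEC3A inhibitors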
DNA dC->dU-editing enzyme APOBEC-3G, sequence (Q9HC16 whole entry): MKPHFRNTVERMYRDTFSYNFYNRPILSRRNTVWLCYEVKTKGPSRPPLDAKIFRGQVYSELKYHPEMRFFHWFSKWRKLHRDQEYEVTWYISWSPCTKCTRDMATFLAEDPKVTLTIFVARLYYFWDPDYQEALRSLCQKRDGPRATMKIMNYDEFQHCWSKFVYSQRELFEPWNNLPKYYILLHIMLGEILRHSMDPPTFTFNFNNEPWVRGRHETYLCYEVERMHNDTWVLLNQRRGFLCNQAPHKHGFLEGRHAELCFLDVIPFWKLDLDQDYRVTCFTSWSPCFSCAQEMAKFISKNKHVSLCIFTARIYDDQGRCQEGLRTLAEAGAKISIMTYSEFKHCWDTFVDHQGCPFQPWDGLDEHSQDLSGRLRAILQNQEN

[13] = target: T3, Short transient receptor potential channel 4 (Mus musculus, UniProt Q9QUQ5); assay: mouse TRPC4 channel inhibitors, dose response, cell-based, HEK293 TRPC4/mu-opioid, Fluo-4 calcium (AID 434942); assay type: functional;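 also: potency of inhibitors blocking the TRPC4 calcium response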
T3 sequence (Q9QUQ5 whole entry): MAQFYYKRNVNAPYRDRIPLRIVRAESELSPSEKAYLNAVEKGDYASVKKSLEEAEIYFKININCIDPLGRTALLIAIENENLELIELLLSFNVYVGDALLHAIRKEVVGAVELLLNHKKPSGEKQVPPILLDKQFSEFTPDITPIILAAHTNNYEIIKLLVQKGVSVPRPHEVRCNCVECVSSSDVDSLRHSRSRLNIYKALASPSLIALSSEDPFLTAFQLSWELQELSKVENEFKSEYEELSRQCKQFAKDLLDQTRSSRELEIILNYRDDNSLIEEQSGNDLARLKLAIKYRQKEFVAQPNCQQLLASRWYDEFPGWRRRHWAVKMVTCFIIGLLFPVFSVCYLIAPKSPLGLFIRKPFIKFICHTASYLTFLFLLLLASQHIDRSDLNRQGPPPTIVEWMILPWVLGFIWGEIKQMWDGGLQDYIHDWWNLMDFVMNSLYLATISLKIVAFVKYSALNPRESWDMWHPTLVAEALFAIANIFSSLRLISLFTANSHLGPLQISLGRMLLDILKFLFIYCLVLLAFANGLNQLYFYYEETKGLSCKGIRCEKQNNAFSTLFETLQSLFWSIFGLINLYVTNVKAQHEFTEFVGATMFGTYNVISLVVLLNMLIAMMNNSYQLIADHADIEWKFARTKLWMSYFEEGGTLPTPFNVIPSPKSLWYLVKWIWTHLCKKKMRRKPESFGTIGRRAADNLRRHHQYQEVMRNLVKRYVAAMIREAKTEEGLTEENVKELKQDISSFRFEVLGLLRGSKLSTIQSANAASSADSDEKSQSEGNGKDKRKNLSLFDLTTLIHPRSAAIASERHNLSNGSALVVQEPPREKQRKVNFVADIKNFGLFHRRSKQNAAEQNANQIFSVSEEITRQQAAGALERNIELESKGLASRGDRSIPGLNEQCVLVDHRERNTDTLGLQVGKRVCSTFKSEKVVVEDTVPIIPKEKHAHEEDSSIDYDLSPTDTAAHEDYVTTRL

X-box-binding protein 1 = target: T4, X-box-binding protein 1 (Homo sapiens, UniProt P17861); assay type: functional, Cricetulus griseus;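 also: confirmatory dose-response counter-screen serving a CHOP assay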
T4 sequence (P17861 whole entry): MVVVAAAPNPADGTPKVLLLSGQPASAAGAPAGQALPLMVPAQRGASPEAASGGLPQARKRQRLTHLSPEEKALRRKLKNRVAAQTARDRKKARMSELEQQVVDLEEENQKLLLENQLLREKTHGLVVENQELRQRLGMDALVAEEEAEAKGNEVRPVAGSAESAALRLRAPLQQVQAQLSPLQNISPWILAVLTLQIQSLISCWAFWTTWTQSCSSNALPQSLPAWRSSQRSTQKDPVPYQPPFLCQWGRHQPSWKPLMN

[14] = A Cell Based Secondary Assay To Explore Cytotoxicity of Compounds that Sensitize Mycobacterium Tuberculosis to Beta-Lactam Antibiotics.; assay type: functional
[15] = NIH-3T3 fibroblast cytotoxicity, dose response, cytotoxicity control, cell-based, fluorescence, Alamar Blue, secondary assay (AID 2327); assay type: functional;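 also: NIH-3T3 mouse fibroblasts cultured with fluconazole at 8 µg/mL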
[16] = C. albicans growth with fluconazole, confirmation, fluorescence, retest (AID 2467); assay type: functional, cell-based
[17] = Luminescence Cell-Based Dose Retest to Confirm Inhibitors of Cancer Stem Cells. [Related pubchem assays (depositor defined):AID2717, AID2721]; assay type: functional; details: Homo sapiens
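For AC50 in this document: cells exposed to compound for roughly 70 hours or longer before luminescence read.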

Structure (SMILES): Cc1ccc(C(=O)NCC(=O)OCC(=O)NC(C)c2ccccc2)s1 (stereo unspecified)
- IC50 (Aminopeptidase N): 39.6 µM (active)

Structure (SMILES): CC1=CC(C)C(CN(CCC[N+](C)(C)C)C(=O)Nc2ccccc2)C(C)C1 (stereo unspecified)
- IC50 [1]: > 100 µM (inactive)
- IC50 [2]: 4.08 µM (active)

Structure (SMILES): Cc1[nH]c2ccccc2c1/C=C1\SC(=S)N(c2cccc(C(=O)O)c2)C1=O
- IC50 (Aminopeptidase N): 55.9 µM (active)

Structure (SMILES): COc1ccc(-c2nc3c4cnn(C)c4ncn3n2)cc1
- IC50 [3]: > 100 µM (not active)
- IC50 [4]: > 100 µM (inactive)
- IC50 [5]: > 100 µM (inactive)

Structure (SMILES): O=C(NC(=S)Nc1ccccc1C(=O)O)c1ccc(-c2ccc(Br)cc2)o1
- CC50 [6]: 19 µM (active)
- EC50 [7]: 71.2 µM (active)
- EC50 [8]: 12.5 µM (active)
- EC50 (H4): 22.1 µM (active)
- EC50 [9]: 2.13 µM (active)
- EC50 [10]: > 60 µM (not active)
- IC50 (Genome polyprotein): 42.2 µM (active)
- IC50 (cells): 6.21 µM (active)

Structure (SMILES): COC(=O)CCCCCCCCC(O)C[N+]1(C)CCOCC1 (stereo unspecified)
- IC50 [1]: > 100 µM (inactive)
- IC50 [2]: 2.48 µM (active)
- IC50 [11]: 2.36 µM (active)
- IC50 [12]: 3.49 µM (active)

Structure (SMILES): CC1(C)CC2CC(C)(CN2CC(O)COc2ccccc2)C1 (stereo unspecified)
- EC50 [13]: 1.88 µM (active)

Structure (SMILES): Cn1c(=O)cc(SCC(=O)NCCC2=CCCCC2)c2ccc(Cl)cc21
- Absolute IC50 (XBP1) (X-box-binding protein 1): 10 µM

Structure (SMILES): CCCCCCCCCCSc1nnc(NC(C)=O)[nH]1
- IC50 [4]: > 100 µM (inactive)

Structure (SMILES): C[C@H]1C=CC(=O)O[C@H]1c1ccccc1
- CC50 [14]: 22.9 µM (active)

Structure (SMILES): CCn1c(SCC(=O)NCc2ccccc2)nnc1C(CO)NC(=O)c1ccccc1 (stereo unspecified)
- IC50 [1]: > 100 µM (inactive)
- IC50 [2]: 6.06 µM (active)
- IC50 [11]: 3.67 µM (active)
- IC50 [12]: 4.48 µM (active)

Structure (SMILES): NNC(=O)Cn1c(-c2nonc2N)nc2ccccc21
- IC50 (Aminopeptidase N): 58.2 µM (active)

Structure (SMILES): COC(=O)c1c(C)n(-c2ccccc2)c2ccc(O)cc12
- EC50 [15]: 2.59 µM (inconclusive)
- CC50 [14]: > 40 µM (active)
- EC50 [16]: > 38 µM (not active)

Structure (SMILES): O=C(c1ccc2c(c1)OCO2)C1CCCN(Cc2ccccc2OC(F)F)C1 (stereo unspecified)
- EC50 [13]: 2.99 µM (active)

Structure (SMILES): CCOC(=O)N1CCC(n2c(=S)[nH]c3cc(OCC)c(OCC)cc3c2=O)CC1
- Absolute IC50 (XBP1) (X-box-binding protein 1): 10 µM

Structure (SMILES): OCCCNc1cc(-c2ccccc2)nc2cc(-c3ccc(F)cc3)nn12
- CC50 [6]: > 50 µM (active)
- AC50 [17]: 6.05 µM (active)
- IC50 (cells): 22.4 µM (active)

Structure (SMILES): CCCCCC(=O)Nc1cccc(C2=NOC3(C2)C[C@@H](C(N)=O)N(C(=O)CC(c2ccccc2)c2ccccc2)C3)c1 (stereo partly specified)
- CC50 [14]: > 40 µM (active)
- EC50 [9]: 0.396 µM (active)
- EC50 [10]: > 60 µM (not active)

Structure (SMILES): COCCCNc1cc(C)nc2ccccc12
- EC50 [13]: 3.76 µM (active)

Structure (SMILES): COc1ccc(/C=N/Nc2nc(-c3ccc(C)cc3)c(NC(C)=O)s2)cc1
- CC50 [14]: > 40 µM (active)

Structure (SMILES): CC[N+](C)(CC)CCC/C(=N/O)C(O)(c1ccccc1)c1ccccc1
- IC50 [1]: > 100 µM (inactive)
- IC50 [2]: 5.57 µM (active)

Structure (SMILES): O=C(c1cc(-c2ccc(Cl)cc2Cl)n[nH]1)N1CCN(CCO)CC1
- IC50 [3]: > 100 µM (not active)
- IC50 [4]: > 100 µM (inactive)

Structure (SMILES): CC(=O)OC[C@]12CCC(C)=C[C@H]1O[C@@H]1[C@H](O)[C@@H](OC(C)=O)[C@@]2(C)[C@]12CO2 [ANGUIDIN]
- Absolute IC50 (XBP1) (X-box-binding protein 1): 0.16 µM
